Here are results for eight molecules from ChEMBL document CHEMBL5380869, “Discovery of an Oral, Beyond-Rule-of-Five Mcl-1 Protein-Protein Interaction Modulator with the Potential of Treating Hematological Malignancies” (J Med Chem, 2023).

Molecules are shown by their SMILES. pIC50, pKi: −log10 of the molar value. Converted amounts (≈) assume the structure as drawn.

Series [1] is described as follows: Inhibition of terbium-labelled Mcl-1 (unknown origin)/Bim BH3 peptide (H3N-(C/Cy5Mal)-WIAQELRRIGDEFN-OH) (unknown origin) interaction assessed as displacement of Cy5-labeled Bim BH3 peptide by TR-HTRF assay.
The next series has as its target Cytochrome P450 2C19 (Homo sapiens, UniProt P33261). The series can be described thus: Inhibition of human CYP2C19 assessed as fluorescent metabolites by CYP450 inhibition assay. In kind it is ADME.
The target of a further series is T1, Cytochrome P450 2C8 (Homo sapiens, UniProt P10632).
T1 sequence (P10632 whole entry): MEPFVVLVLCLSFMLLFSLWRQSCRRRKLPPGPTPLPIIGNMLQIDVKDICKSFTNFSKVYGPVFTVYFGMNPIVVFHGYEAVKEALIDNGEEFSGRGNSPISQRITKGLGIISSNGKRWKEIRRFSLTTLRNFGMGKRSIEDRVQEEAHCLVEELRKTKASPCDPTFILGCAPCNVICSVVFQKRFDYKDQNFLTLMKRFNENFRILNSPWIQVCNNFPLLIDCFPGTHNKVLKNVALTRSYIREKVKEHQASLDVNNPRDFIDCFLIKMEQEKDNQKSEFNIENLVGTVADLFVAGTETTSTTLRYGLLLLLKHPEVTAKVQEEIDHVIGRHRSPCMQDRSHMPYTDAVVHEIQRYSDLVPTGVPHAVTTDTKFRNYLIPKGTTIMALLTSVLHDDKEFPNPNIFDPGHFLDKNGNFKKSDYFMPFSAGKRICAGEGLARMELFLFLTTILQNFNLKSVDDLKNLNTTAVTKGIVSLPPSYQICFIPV
Description: Inhibition of human CYP2C8 assessed as fluorescent metabolites by CYP450 inhibition assay. In kind it is ADME.

A further series deals with Cytochrome P450 2D6 (Homo sapiens, UniProt P10635). The series can be described thus: Inhibition of human CYP2D6 assessed as fluorescent metabolites by CYP450 inhibition assay. In kind it is ADME.
Cytochrome P450 2D6, sequence (P10635 whole entry): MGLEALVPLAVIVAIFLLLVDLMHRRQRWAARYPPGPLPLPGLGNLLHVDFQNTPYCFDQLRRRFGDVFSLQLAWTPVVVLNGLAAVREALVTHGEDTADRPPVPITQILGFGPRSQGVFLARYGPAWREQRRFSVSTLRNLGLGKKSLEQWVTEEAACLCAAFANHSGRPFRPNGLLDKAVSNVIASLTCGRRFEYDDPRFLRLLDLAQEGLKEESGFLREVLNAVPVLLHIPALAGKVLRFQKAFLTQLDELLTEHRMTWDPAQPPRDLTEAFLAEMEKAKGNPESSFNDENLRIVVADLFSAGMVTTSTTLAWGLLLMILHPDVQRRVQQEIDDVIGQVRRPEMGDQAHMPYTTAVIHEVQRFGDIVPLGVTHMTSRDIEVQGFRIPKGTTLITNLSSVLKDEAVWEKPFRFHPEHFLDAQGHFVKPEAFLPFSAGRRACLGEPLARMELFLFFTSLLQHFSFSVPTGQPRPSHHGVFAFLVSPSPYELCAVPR
A short description of series [2]: Fraction unbound in human plasma at 5 uM incubated for 4.5 hrs by rapid equilibrium dialysis. In kind it is ADME, cell-free.
Series [3] is described as follows: Thermodynamic (equilibrium) solubility of the compound measured after 3 days agitation in pH 2 buffer by LC-MS/MS analysis. In kind it is physicochemical. The conditions noted are these: time 3 day, read-out: Therm_solubility.
A short description of series [4]: Fraction unbound in mouse plasma at 5 uM incubated for 4.5 hrs by rapid equilibrium dialysis. In kind it is ADME, cell-free.
Another series addresses T2, Cytochrome P450 1A2 (Homo sapiens, UniProt P05177).
T2 sequence (P05177 whole entry): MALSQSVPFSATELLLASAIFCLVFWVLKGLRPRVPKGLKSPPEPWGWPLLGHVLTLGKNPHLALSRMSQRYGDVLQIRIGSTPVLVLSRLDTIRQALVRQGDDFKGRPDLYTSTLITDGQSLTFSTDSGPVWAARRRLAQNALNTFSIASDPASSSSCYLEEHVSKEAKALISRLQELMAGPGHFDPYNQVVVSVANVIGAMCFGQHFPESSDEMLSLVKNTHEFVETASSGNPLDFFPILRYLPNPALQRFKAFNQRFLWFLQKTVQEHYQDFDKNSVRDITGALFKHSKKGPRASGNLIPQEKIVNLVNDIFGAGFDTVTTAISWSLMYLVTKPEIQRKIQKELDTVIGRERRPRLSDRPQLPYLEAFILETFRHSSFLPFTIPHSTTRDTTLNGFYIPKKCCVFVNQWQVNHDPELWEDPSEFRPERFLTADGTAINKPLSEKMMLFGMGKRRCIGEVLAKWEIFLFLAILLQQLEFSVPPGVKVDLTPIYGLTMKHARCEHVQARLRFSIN
Description: Inhibition of human CYP1A2 assessed as fluorescent metabolites by CYP450 inhibition assay. In kind it is ADME.

The nature of series [5]: Cardiotoxicity risk in human iPSC-CM assessed as calcium transients at 3 uM by CTCM assay. In kind it is toxicity, cell-based.
Series [6] is described as follows: Cardiotoxicity risk in human iPSC-CM assessed as calcium transients at 1 uM by CTCM assay. In kind it is toxicity, cell-based.
A further series has as its system MOLP-8. The series can be described thus: Induction apoptosis in human MOLP8 cells assessed as cell killing measured after 2 hrs by Caspase-Glo 3/7 Assay. In kind it is functional, cell-based. The settings on record: MOLP-8, 2 h.
The nature of series [7]: Intrinsic clearance in mouse liver microsomes measured upto 60 mins by LC-MS/MS analysis. In kind it is ADME, Microsome. The conditions noted are these: read-out: CLH. (In general: Microsomes from liver hold many membrane-bound enzymes, among them those of drug oxidation.)
The nature of series [8]: Thermodynamic (equilibrium) solubility of the compound measured after 3 days agitation in pH 7 buffer by LC-MS/MS analysis. In kind it is physicochemical. The conditions noted are these: time 3 day, read-out: Therm_solubility.
The nature of series [9]: Cardiotoxicity risk in human iPSC-CM assessed as calcium transients at 10 uM by CTCM assay. In kind it is toxicity, cell-based.
Series [10] can be described thus: Lipophilicity, CHI logD of compound at pH 7.4 by UPLC-TOF analysis. In kind it is physicochemical. The settings on record: buffer.
Series [11] in a line: Intrinsic clearance in human liver microsomes measured upto 60 mins by LC-MS/MS analysis. In kind it is ADME, Microsome. The settings on record: read-out: CLH.
For another series, the target named is Cytochrome P450 2C9 (Homo sapiens, UniProt P11712). Description: Inhibition of human CYP2C9 assessed as fluorescent metabolites by CYP450 inhibition assay. In kind it is ADME.
Cytochrome P450 2C9, sequence (P11712 whole entry): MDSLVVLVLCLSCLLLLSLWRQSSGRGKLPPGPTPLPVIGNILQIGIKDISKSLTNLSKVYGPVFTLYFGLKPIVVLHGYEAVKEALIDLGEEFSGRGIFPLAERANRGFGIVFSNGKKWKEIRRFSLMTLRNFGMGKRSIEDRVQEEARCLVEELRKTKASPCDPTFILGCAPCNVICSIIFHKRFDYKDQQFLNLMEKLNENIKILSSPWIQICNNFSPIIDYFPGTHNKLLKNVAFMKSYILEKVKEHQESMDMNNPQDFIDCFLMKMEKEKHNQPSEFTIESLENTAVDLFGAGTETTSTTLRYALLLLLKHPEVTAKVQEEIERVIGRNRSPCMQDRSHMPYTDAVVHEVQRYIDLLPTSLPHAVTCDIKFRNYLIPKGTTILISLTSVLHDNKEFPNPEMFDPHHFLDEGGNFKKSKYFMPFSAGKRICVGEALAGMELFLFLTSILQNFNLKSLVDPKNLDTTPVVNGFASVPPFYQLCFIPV
Series [12] is described as follows: Lipophilicity, CHI logD of compound at pH 2.6 by UPLC-TOF analysis. In kind it is physicochemical. The settings on record: buffer.
Series [13] in a line: Lipophilicity, CHI logP of compound at pH 7.4 by UPLC-TOF analysis. In kind it is physicochemical. The settings on record: buffer, read-out: logP.

Cytochrome P450 2C19, sequence (P33261 whole entry): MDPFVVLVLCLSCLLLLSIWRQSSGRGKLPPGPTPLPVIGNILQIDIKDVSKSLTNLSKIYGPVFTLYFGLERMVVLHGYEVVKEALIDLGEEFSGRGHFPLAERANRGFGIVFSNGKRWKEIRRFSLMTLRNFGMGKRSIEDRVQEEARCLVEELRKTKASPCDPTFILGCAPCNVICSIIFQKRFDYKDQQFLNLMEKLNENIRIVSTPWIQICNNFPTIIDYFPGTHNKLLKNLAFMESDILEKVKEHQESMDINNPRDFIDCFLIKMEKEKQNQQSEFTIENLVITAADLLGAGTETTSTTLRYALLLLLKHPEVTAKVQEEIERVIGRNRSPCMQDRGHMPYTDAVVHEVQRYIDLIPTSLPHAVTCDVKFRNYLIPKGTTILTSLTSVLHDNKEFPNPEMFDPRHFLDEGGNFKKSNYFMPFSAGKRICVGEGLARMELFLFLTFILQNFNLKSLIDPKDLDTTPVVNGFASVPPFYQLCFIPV

In general, pKi refers to the Ki on a negative log10 scale, so that one unit is a factor of ten. As a reminder, the pIC50 is the negative decadic logarithm of the IC50, by convention in mol/L. One may read the AC50 as the midpoint of the concentration-response curve, whichever way the signal moves. With `COc1nn(C)cc1C(=O)N[S@@]1(=O)=NC(=O)c2ccc3c(c2)N(C[C@@H]2CCO[C@H]2[C@](CN2CCN4CCOC[C@@H]4C2)(OC)/C(F)=C/C[C@H](C)C1)C[C@@]1(CCCc2cc(Cl)ccc21)CO3`, in [1], the pKi is 10.85. Further, the “inhibition (INH)” value on Cytochrome P450 2C19, at Cytochrome P450 2D6, at Cytochrome P450 1A2 and at Cytochrome P450 2C9 was “Not Active” in each case. Besides, on Cytochrome P450 2C8, the pIC50 is 5.20. Moreover, the Fu came to 0.12% in [2] and 0.08% in series [4]. For the same molecule, the solubility thermodynamic at 72 h in [3] was 48 µM (≈ 44.4 µg/mL); in series [8], below 0.1 µM. Also, the Activity entry in series [5], in [6] and in [9] was “Non-Toxic” in each case. Besides, the AC50 with MOLP-8 came out at 28.6 nM. Also, the microsomal CLint in series [7] and in series [11] was below 7.7 µL/min/mg in each case. In addition, the chromatographic logD in [10] was determined as 3.1.

On to `CO[C@@]1(CN2CCN3CCOC[C@@H]3C2)/C(F)=C/C[C@H](C)[C@H](C)S(=O)(=O)NC(=O)c2ccc3c(c2)N(C[C@@H]2CCO[C@H]21)C[C@@]1(CCCc2cc(Cl)ccc21)CO3`, for which, in series [1], the pKi was 9.89. The values for the chromatographic logD in [12] and in [13] were 3.4 and 3.3, respectively. Also, the solubility thermodynamic at 72 h in series [3] was 516 µM (≈ 414 µg/mL); in series [8], below 0.1 µM. Besides, the Activity entry in [5] is “Non-Toxic”; in series [6], “Non-Toxic”; in series [9], “Toxic”. In the series with MOLP-8, the half-maximal activity concentration (AC50) amounted to 992 nM. Further, the microsomal CLint was 22 µL/min/mg in series [7] and below 7.7 µL/min/mg in series [11].

`CO[C@]1(CN2CCN3CCOC[C@@H]3C2)/C(F)=C/C[C@H](C)[C@@H](C)S(=O)(=O)NC(=O)c2ccc3c(c2)N(C[C@@H]2CCO[C@H]21)C[C@@]1(CCCc2cc(Cl)ccc21)CO3`: in series [1], the pKi is 10.06. Further, the chromatographic logD in series [12] came to 2.8; in series [13], 3.5. Besides, the results for the solubility thermodynamic at 72 h in series [3] and in series [8] were 44 µM (≈ 35.3 µg/mL) and below 0.1 µM, respectively. Further, the Activity entry in series [5] is reported as “Non-Toxic”; in series [6], “Non-Toxic”; in series [9], “Toxic”. For the same molecule, in the series with MOLP-8, the AC50 was 163 nM. Moreover, the values for the microsomal CLint in [7] and in series [11] were 21 µL/min/mg and 11 µL/min/mg, respectively.

On to `COc1nn(C)cc1C(=O)N[S@@]1(=O)=NC(=O)c2ccc3c(c2)N(C[C@@H]2CC[C@H]2[C@@H](OC)/C=C/C[C@H](C)C1)C[C@@]1(CCCc2cc(Cl)ccc21)CO3`, for which the pKi in series [1] is 10.10. Also, the “inhibition (INH)” value at Cytochrome P450 2C19, at Cytochrome P450 2D6, on Cytochrome P450 1A2 and at Cytochrome P450 2C9 was “Not Active” in each case. The pIC50 on Cytochrome P450 2C8 was 5.40. For the same molecule, the values for the Fu in series [2] and in series [4] were 0.06% and 0.02%, respectively. In addition, the solubility thermodynamic at 72 h is below 0.1 µM in series [3] and 118 µM (≈ 86.9 µg/mL) in series [8]. The figures for the Activity entry in series [5], in series [6] and in series [9] were “Non-Toxic”, “Non-Toxic” and “Toxic”, respectively. In addition, the AC50 with MOLP-8 amounted to 69.4 nM. The microsomal CLint in series [7] and in series [11] was below 7.7 µL/min/mg throughout. Also, in series [10], the chromatographic logD turned out to be 3.4.

In the case of `COCCN(CCOC)C[C@]1(OC)/C(F)=C/C[C@H](C)[C@@H](C)S(=O)(=O)NC(=O)c2ccc3c(c2)N(C[C@@H]2CCO[C@H]21)C[C@@]1(CCCc2cc(Cl)ccc21)CO3`, the pKi in [1] is 10.02. Besides, the chromatographic logD in [12] is 3; in series [13], 3.9. The solubility thermodynamic at 72 h in series [3] worked out at 518 µM (≈ 410 µg/mL); in series [8], 1.1 µM (≈ 0.872 µg/mL). In the series with MOLP-8, the AC50 was 412 nM. Also, the microsomal CLint was 28 µL/min/mg in series [7] and below 7.7 µL/min/mg in [11].

For `CO[C@@]1(CN2CCN3CCOC[C@@H]3C2)/C(F)=C/C[C@H](C)[C@@H](C)S(=O)(=O)NC(=O)c2ccc3c(c2)N(C[C@@H]2CCO[C@H]21)C[C@@]1(CCCc2cc(Cl)ccc21)CO3`, the pKi in [1] was 10.85. For the same molecule, the “inhibition (INH)” value at Cytochrome P450 2C19, on Cytochrome P450 2D6, at Cytochrome P450 1A2 and at Cytochrome P450 2C9 was “Not Active” throughout. The chromatographic logD in series [12] is 2.5; in [13], 2.9. Besides, the Fu in series [2] is reported as 0.16%; in series [4], 0.13%. Moreover, the solubility thermodynamic at 72 h in series [3] was found to be 69 µM (≈ 55.3 µg/mL); in series [8] it was 110 µM (≈ 88.2 µg/mL). Besides, the Activity result in series [5] and in [6] was “Non-Toxic” throughout. Also, in the series on MOLP-8, the AC50 was found to be 138 nM. Also, the microsomal CLint in [7] was below 7.7 µL/min/mg; in [11], 19 µL/min/mg.

On to `COCCOCCn1nc(C)c2c1CSCc1cc(n(C)n1)CSc1cc(c3ccccc3c1)OCCCn1c(C(=O)O)c(C)c3c-2c(Cl)ccc31`, for which the pKi in [1] is 10.82. Also, the “inhibition (INH)” value on Cytochrome P450 2C19, at Cytochrome P450 2D6, at Cytochrome P450 1A2 and at Cytochrome P450 2C9 was “Not Active” each time. Besides, the pIC50 at Cytochrome P450 2C8 is 6.30. Besides, the Fu came to 0.08% in series [2] and 0.03% in series [4]. Also, the values for the solubility thermodynamic at 72 h in series [3] and in [8] were below 0.5 µM and 508 µM (≈ 386 µg/mL), respectively. The Activity result in series [5] and in [6] was “Non-Toxic” in each case. Besides, the AC50 in the series on MOLP-8 was 12 nM. The microsomal CLint in series [7] was above 347 µL/min/mg; in [11], 81 µL/min/mg. In addition, in series [10], the chromatographic logD was 2.4.

Consider `CO[C@@]1(CN2CCN3CCCC[C@@H]3C2)/C(F)=C/C[C@H](C)[C@@H](C)S(=O)(=O)NC(=O)c2ccc3c(c2)N(C[C@@H]2CCO[C@H]21)C[C@@]1(CCCc2cc(Cl)ccc21)CO3`, for which the pKi in [1] was 9.82. The results for the chromatographic logD in series [12] and in [13] were 2.5 and 3, respectively. The figures for the solubility thermodynamic at 72 h in series [3] and in series [8] were 40 µM (≈ 32 µg/mL) and 102 µM (≈ 81.5 µg/mL), respectively. Also, the AC50 in the series on MOLP-8 was found to be 1860 nM. The microsomal CLint in [7] and in series [11] was below 7.7 µL/min/mg in each case.
